According to US20260115203A1 (LABORATORIOS LITAPHAR, S.L., priority 2023, published 2026):
“Also recorded” adds a separate entry of the source. Like-named read-outs stand apart in the source and are kept apart here.

How the values were obtained:
[1] = compared with parent drug mifepristone; cited from earlier work
[2] = target: T1, human glucocorticoid receptor (Homo sapiens, UniProt P04150); conditions: cited from earlier work
T1 sequence (P04150 1-777): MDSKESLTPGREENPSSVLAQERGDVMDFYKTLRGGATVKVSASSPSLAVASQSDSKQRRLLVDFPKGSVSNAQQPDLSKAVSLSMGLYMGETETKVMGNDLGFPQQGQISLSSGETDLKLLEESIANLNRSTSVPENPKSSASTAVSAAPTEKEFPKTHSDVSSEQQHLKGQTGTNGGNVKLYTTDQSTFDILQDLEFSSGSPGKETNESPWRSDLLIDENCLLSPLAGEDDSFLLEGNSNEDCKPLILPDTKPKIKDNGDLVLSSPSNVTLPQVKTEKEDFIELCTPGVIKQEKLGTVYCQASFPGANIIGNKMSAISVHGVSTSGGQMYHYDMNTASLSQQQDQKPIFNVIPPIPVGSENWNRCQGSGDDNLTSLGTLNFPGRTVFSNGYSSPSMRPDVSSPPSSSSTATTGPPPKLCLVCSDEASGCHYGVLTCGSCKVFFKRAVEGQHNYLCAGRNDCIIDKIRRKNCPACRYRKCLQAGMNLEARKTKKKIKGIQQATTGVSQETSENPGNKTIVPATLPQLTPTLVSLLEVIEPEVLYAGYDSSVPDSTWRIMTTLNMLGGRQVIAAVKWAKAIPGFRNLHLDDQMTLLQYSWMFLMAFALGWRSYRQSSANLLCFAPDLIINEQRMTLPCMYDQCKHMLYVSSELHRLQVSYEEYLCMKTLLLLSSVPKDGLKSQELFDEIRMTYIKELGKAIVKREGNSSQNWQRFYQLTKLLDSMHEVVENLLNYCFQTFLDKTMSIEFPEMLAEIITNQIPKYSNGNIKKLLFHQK

[3] = target: T2, human progesterone receptor (Homo sapiens, UniProt P06401); conditions: cited from earlier work
T2 sequence (P06401 1-933): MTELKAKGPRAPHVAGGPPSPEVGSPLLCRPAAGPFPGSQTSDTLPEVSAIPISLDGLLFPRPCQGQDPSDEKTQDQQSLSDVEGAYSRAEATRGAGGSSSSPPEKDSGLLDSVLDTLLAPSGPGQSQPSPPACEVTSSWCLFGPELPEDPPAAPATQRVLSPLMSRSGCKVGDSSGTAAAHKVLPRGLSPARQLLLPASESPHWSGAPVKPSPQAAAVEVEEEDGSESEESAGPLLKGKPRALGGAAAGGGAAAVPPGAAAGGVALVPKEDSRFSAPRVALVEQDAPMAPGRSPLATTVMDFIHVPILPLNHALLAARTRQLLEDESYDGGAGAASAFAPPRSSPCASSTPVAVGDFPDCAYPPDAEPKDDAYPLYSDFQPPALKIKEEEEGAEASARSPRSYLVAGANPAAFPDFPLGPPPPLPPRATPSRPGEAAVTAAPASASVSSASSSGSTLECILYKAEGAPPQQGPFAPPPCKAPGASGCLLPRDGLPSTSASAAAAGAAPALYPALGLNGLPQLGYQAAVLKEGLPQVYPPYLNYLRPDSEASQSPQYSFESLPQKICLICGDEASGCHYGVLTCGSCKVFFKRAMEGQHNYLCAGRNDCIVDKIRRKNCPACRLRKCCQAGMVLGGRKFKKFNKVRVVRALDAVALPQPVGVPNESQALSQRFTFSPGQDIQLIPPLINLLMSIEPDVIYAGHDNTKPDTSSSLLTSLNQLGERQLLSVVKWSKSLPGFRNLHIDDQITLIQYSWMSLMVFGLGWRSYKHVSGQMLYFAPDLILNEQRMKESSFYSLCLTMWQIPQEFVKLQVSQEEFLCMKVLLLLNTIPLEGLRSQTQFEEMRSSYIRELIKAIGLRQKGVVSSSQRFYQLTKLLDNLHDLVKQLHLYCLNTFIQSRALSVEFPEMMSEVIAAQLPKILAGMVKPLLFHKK

[4] = tested on: endometriosis in reproductive-age women; assay: Randomized, double-blind clinical trial of mifepristone 2.5 mg and 5 mg vs. placebo (EudraCT 2018-002367-26), endometriosis associated pain by VAS; type: in vivo
Description: Both mifepristone products were formulated as tablets with the following respective compositions: […]
The planned number of subjects to be included in the whole clinical trial was 490.
The principal inclusion criteria were: • [1] Premenopausal female, between 18 and 45 years of age inclusive, at the time of signing consent • [2] Patients with Endometriosis Associated Pelvic Pain (EAPP: i.e. any type of pelvic pain associated with endometriosis: nonmenstrual pelvic pain, dysmenorrhea, dyschezia and dyspareunia) as measured by Visual Analogue Scale (VAS)≥40 mm at least once in the previous 4 weeks from baseline visit • [3] Patients with a history of EAPP for at least the past 6 months prior to the initial screening visit • [4] Endometriosis diagnosed by laparoscopy and/or surgery in the past 10 years or less or diagnosed by MRI or transvaginal ultrasound in the past 5 years • [5] Patients with a history of regular menstrual cycles (21-35 days) while not being on any pharmacological treatment that could alter the menstrual cycle (e.g. oral contraceptive pills) • [6] Patients who agree to use only ibuprofen 400 mg as rescue medication up to a total daily dose of not more than 2400 mg • [7] Patients willing and able (e.g. mental and physical condition) to participate in all aspects of the study as evidenced by providing signed written informed consent • [8] Patient agrees to use double barrier contraception birth control methods (e.g. condom with spermicide) during the entire length of participation in the study. […] History of hypersensitivity or intolerance to the active substance or any of the excipients of the study medication • [2] Subject is pregnant or breast-feeding or is planning a pregnancy within the duration of the study or is less than 6 months postpartum, post-abortion, or post-lactation at the time of entry into the screening period • [3] Previous use of hormonal agents before the Screening visit: ≤24 weeks for GnRH agonists; ≤12 weeks for depot progestogens and danazol: ≤6 weeks for oral contraceptives • [4] Patients with history of any cancer (including breast cancer) and/or histological diagnosis of endometrial atypical hyperplasia at baseline (note: the combination of endometrial thickness<5 mm determined by transvaginal ultrasound and insufficient material for histological evaluation from the endometrial biopsy will be regarded as atrophic endometrium) • [5] Other clinically significant gynaecological condition causing abnormal uterine bleeding already known or identified on Screening such as severe adenomyosis or symptomatic uterine fibroids requiring treatment • [6] Subject has current or history of abnormal genital bleeding • [7] Presence of ovarian cyst of unknown etiology • [8] Cervical smear with pathological findings: class III or higher according to Papanicolaou, class IIp or higher according to the Munich Ill nomenclature or ASC-US or higher according to the Bethesda system • [9] Surgical treatment of endometriosis within 3 months prior to the screening visit • [10] Presence of chronic pain other than pain due to endometriosis • [11] Hepatic insufficiency • [12] History of, or complications of, thrombosis, embolism, or serious cardiac, respiratory (severe asthma not adequately controlled by treatment), renal, hematologic, endocrine diseases • [13] Uncontrolled or inadequately controlled hypertension at the time of screening with a resting supine systolic or diastolic blood pressure>180 mmHg or >95 mmHg, respectively • [14] Subject with hereditary porphyria • [15] Abnormal laboratory findings considered by the investigator as clinically significant • [16] Positive results for HBs-Ag, anti-HCV and HIV-1/HIV-2-antibodies • [17] […]

women with endometriosis [5] = conditions: 50 mg orally daily, 6 months, cited from earlier work
women with endometriosis [6] = conditions: 5 mg orally daily, 6 months, cited from earlier work
[7] = tested on: women with laparoscopic diagnostic of endometriosis; conditions: cited from earlier work
women with endometriosis [8] = conditions: 100 mg orally daily, three months, cited from earlier work

CC#C[C@]1(O)CC[C@H]2[C@@H]3CCC4=CC(=O)CCC4=C3[C@@H](c3ccc(N)cc3)C[C@@]21C [RU 42848]
serum concentrations [1]: in a similar range as those of the parent drug
affinity toward the human glucocorticoid receptor [2]: considerable affinity
affinity toward the human progesterone receptor [3]: considerable affinity

CN(C)c1ccc([C@H]2C[C@@]3(C)[C@@H](CC[C@]3(O)C#CCO)[C@@H]3CCC4=CC(=O)CCC4=C32)cc1 [RU 42698]
serum concentrations [1]: in a similar range as those of the parent drug
affinity toward the human glucocorticoid receptor [2]: considerable affinity
affinity toward the human progesterone receptor [3]: considerable affinity

CC#C[C@]1(O)CC[C@H]2[C@@H]3CCC4=CC(=O)CCC4=C3[C@@H](c3ccc(NC)cc3)C[C@@]21C [RU 42633]
serum concentrations [1]: in a similar range as those of the parent drug
affinity toward the human glucocorticoid receptor [2]: considerable affinity
affinity toward the human progesterone receptor [3]: considerable affinity

CC#C[C@]1(O)CC[C@H]2[C@@H]3CCC4=CC(=O)CCC4=C3[C@@H](c3ccc(N(C)C)cc3)C[C@@]21C [mifepristone]
pain relief, 2.5 mg daily dose compared with 5 mg daily dose ([4]; 2.5 mg (T1) vs 5 mg (T2) per day): more pronounced than the 5 mg group; also recorded: more effective than the 5 mg dose; also recorded: less pelvic pain than with a daily dose of 5 mg
pain associated with extra-pelvic endometriosis ([4]; 2.5 mg tablet every day as monotherapy, lesions in cesarean sections or ovarian endometriomas): effective to reduce the pain associated with extra-pelvic endometriosis; also recorded: appropriate pain relief
endometrial thickening ([4]; 5 mg dose compared with 2.5 mg dose): markedly greater endometrial thickening than the lower dose of 2.5 mg
EAP (VAS) ([4]; T1, 2.5 mg mifepristone per day, 1 month of treatment): 29.19
EAP (VAS) ([4]; T1, 2.5 mg mifepristone per day, 2 months of treatment): 24.61
EAP (VAS) ([4]; T1, 2.5 mg mifepristone per day, 3 months of treatment): 23.63
EAP (VAS) ([4]; T1, 2.5 mg mifepristone per day, 4 months of treatment): 22.31
EAP (VAS) ([4]; T1, 2.5 mg mifepristone per day, month 0 (before treatment)): 32.81
EAP (VAS) ([4]; T2, 5 mg mifepristone per day, 1 month of treatment): 29.30
EAP (VAS) ([4]; T2, 5 mg mifepristone per day, 2 months of treatment): 26.11
EAP (VAS) ([4]; T2, 5 mg mifepristone per day, 3 months of treatment): 24.58
EAP (VAS) ([4]; T2, 5 mg mifepristone per day, 4 months of treatment): 25.01
EAP (VAS) ([4]; T2, 5 mg mifepristone per day, month 0 (before treatment)): 32.81
intensity of pain associated with endometriosis ([4]; daily dose of 2.5 mg alone, no analgesic rescue medication): significant reduction
amenorrhea / hypoestrogenism (women with endometriosis [5]; all patients): amenorrhea without hypoestrogenism
pelvic pain and uterine cramping (women with endometriosis [5]; nine women): improved in all patients
regression of endometriosis (laparoscopic assessment, AFS score) (women with endometriosis [5]): 55%
cyclic bleeding (women with endometriosis [6]; seven women): ceased in all patients
pelvic pain (women with endometriosis [6]; seven women): improved in six of seven patients
decrease of mean endometriosis scores (women with endometriosis [6]): decreased by only %
amenorrhea and clinical improvement, 2.5 mg group vs 5 and 10 mg groups ([7]; 2.5 mg oral dose): significantly lower percentages of amenorrhea and clinical improvement than the 5 and 10 mg groups
use of analgesics (rescue therapy), 2.5 mg group vs 5 and 10 mg groups ([7]; 2.5 mg oral dose): significantly greater use of analgesics
effectiveness against placebo ([7]; 2.5, 5 and 10 mg oral doses, all treatment groups): more effective than the placebo group
clinical improvement, 5 mg vs 10 mg ([7]; after 90 and 180 days of treatment): no differences were observed
amenorrhea (women with endometriosis [8]; six women): reported by all study participants
pelvic pain (women with endometriosis [8]; six women): all women also reported improvement
extent of endometriosis (follow-up laparoscopy) (women with endometriosis [8]): no significant change
